Data: patent US20060111320A1, “Fungicidal mixtures based on a triazolopyrimidine derivative and azoles” (priority 2002, published 2006)
Like-named read-outs stand apart in the source and are kept apart here.

What was measured:
Assay type in all cases: in vivo
Pyricularia oryzae = details: individual active compound, rice seedlings Tai-Nong 67
Cochliobolus miyabeanus = test: Activity against brown spot of rice caused by Cochliobolus miyabeanus, protective treatment; details: Bipolaris oryzae, 144 h, read-out: Efficacy in % of the untreated control
Plasmopara viticola = test: Activity against Peronospora of grapevines caused by Plasmopara viticola; details: individual active compound, potted vines
Experimental: The active compounds, separately or jointly, were prepared as a stock solution with 0.25% by weight of active compound in acetone or DMSO. 1% by weight of the emulsifier Uniperol® EL (wetting agent having emulsifying and dispersing action based on ethoxylated alkylphenols) was added to this solution. The active compounds or the mixtures were diluted with water to the stated concentration.
Evaluation was carried out by determining the infected leaf areas in percent. These percentages were converted into efficacies. The efficacy (W) is calculated as follows using Abbot's formula: W=(1−α/β)·100 • α is the level of fungicidal infection of the treated plants in % and • β is the level of fungicidal infection of the untreated (control) plants in %
An efficacy of 0 means that the infection level of the treated plants corresponds to that of the untreated control plants; an efficacy of 100 means that the treated plants were not infected.
The expected efficacies of the mixtures of active compounds were determined using Colby's formula [R. S. Colby, Weeds 15, 20-22 (1967)] and compared with the observed efficacies. Colby's formula: E=x+y−x·y/100 • E expected efficacy, expressed in % of the untreated control, when using the mixture of the active compounds A and B at the concentrations a and b • x efficacy, expressed in % of the untreated control, when using active compound A at the concentration a • y efficacy, expressed in % of the untreated control, when using active compound B at the concentration b
Leaves of potted vines were sprayed to runoff point with an aqueous suspension having the concentration of active compound stated below. The next day, the undersides of the leaves were inoculated with an aqueous sporangial suspension of Plasmopara viticola. The grapevines were then initially placed into a water-vapor-saturated chamber at 24° C. for 48 hours and then placed in a greenhouse at 20-30° C. for 5 days. After this period of time, the plants were again placed in a humid chamber for 16 hours to promote sporangiophore eruption. The extent to which the infection had developed on the undersides of the leaves was then determined visually.

Question: What does the source list for `CC1CCN(c2c(-c3c(F)cc(F)cc3F)c(Cl)nc3ncnn23)CC1` [I, 5-chloro-7-(4-methylpiperidin-1-yl)-6-(2,4,6-trifluorophenyl)-[1,2,4]triazolo[1,5-a]pyrimidine]?
Answer: Efficacy in % of the untreated control (Pyricularia oryzae; 0.25 ppm in the spray liquor): 0%; Efficacy in % of the untreated control (Pyricularia oryzae; 1 ppm in the spray liquor): 11%; Efficacy in % of the untreated control (Pyricularia oryzae; 4 ppm in the spray liquor): 33%; pest or weed control at 4 ppm (Cochliobolus miyabeanus): 33%; Efficacy in % of the untreated control (Plasmopara viticola; 1 ppm in the spray liquor): 0%; Efficacy in % of the untreated control (Plasmopara viticola; 4 ppm in the spray liquor): 38%

Question: Which pest or weed control at 1 ppm (Cochliobolus miyabeanus) does the source give for `Clc1ccc(C2(Cn3cncn3)CC(Br)CO2)c(Cl)c1` (stereo not shown) [II (bromuconazole), 1-[4-bromo-2-(2,4-dichlorophenyl)tetrahydrofuran-2-ylmethyl]-1H-[1,2,4]triazole] here?
Answer: 13%

Question: And the pest or weed control at 4 ppm (Cochliobolus miyabeanus)?
Answer: 25%

Question: And the pest or weed control at 16 ppm (Cochliobolus miyabeanus)?
Answer: 50%

Question: Which pest or weed control at 1 ppm (Cochliobolus miyabeanus) does the source give for `CC1COC(Cn2cncn2)(c2ccc(Oc3ccc(Cl)cc3)cc2Cl)O1` (stereo not shown) [III (difenoconazole)] here?
Answer: 13%

Question: What about the pest or weed control at 4 ppm (Cochliobolus miyabeanus) of the same compound?
Answer: 38%

Question: And the pest or weed control at 16 ppm (Cochliobolus miyabeanus)?
Answer: 63%

Question: For `CC(C)(C)C(O)/C(=C\c1ccc(Cl)cc1Cl)n1cncn1` (stereo not shown) [IV (diniconazole), 1-(2,4-dichlorophenyl)-4,4-dimethyl-2-[1,2,4]triazol-1-ylpent-1-en-3-ol], which pest or weed control at 1 ppm (Cochliobolus miyabeanus) is on record?
Answer: 0%

Question: What about the pest or weed control at 4 ppm (Cochliobolus miyabeanus) of the same compound?
Answer: 0%

Question: And the pest or weed control at 16 ppm (Cochliobolus miyabeanus)?
Answer: 25%

Question: `N#CC(Cc1ccc(Cl)cc1)(c1ccccc1)n1cncn1` (stereo not shown) [V (fenbuconazole), 3-(4-chlorophenyl)-2-phenyl-2-[1,2,4]triazol-1-ylpropionitrile] was tested. Which “Efficacy in % of the untreated control” value (Pyricularia oryzae; 1 ppm in the spray liquor) did it give?
Answer: 0%

Question: How did the “Efficacy in % of the untreated control” value (Plasmopara viticola; 1 ppm in the spray liquor) turn out when `O=c1c2cc(F)ccc2nc(-n2cncn2)n1-c1ccc(Cl)cc1Cl` [VI (fluquinconazole), 3-(2,4-dichlorophenyl)-6-fluoro-2-[1,2,4]-triazol-1-yl-3H-quinazolin-4-one] was run?
Answer: 0%

Question: And the “Efficacy in % of the untreated control” value (Plasmopara viticola; 4 ppm in the spray liquor)?
Answer: 0%

Question: Which “Efficacy in % of the untreated control” value (Pyricularia oryzae; 1 ppm in the spray liquor) does the source give for `CCCCC(O)(Cn1cncn1)c1ccc(Cl)cc1Cl` (stereo not shown) [VIII (hexaconazole), 2-(2,4-dichlorophenyl)-1-[1,2,4]triazol-1-ylhexan-2-ol] here?
Answer: 11%

Question: `FC(F)C(F)(F)OCC(Cn1cncn1)c1ccc(Cl)cc1Cl` (stereo not shown) [X (tetraconazole), 1-[2-(2,4-dichlorophenyl)-3-(1,1,2,2-tetrafluoroethoxy)propyl]-1H-[1,2,4]triazole] was tested. Which “Efficacy in % of the untreated control” value (Plasmopara viticola; 1 ppm in the spray liquor) did it give?
Answer: 0%

Question: And the “Efficacy in % of the untreated control” value (Plasmopara viticola; 4 ppm in the spray liquor)?
Answer: 0%

Question: How did the “Efficacy in % of the untreated control” value (Pyricularia oryzae; 1 ppm in the spray liquor) turn out when `CCCOC/C(=N\c1ccc(Cl)cc1C(F)(F)F)n1cncn1` [XI (triflumizole), (4-chloro-2-trifluormethylphenyl)-(2-propoxy-1-[1,2,4]triazol-1-ylethylidene)amine] was run?
Answer: 11%

Question: `OC(Cn1cncn1)(c1ccc(F)cc1)c1ccccc1F` (stereo not shown) [XII (flutriafol), 1-(4-fluorophenyl)-1-(2-fluorophenyl)-2-[1,2,4]triazol-1-ylethanol] was tested. Which pest or weed control at 1 ppm (Cochliobolus miyabeanus) did it give?
Answer: 0%

Question: And the pest or weed control at 4 ppm (Cochliobolus miyabeanus)?
Answer: 25%

Question: What about the pest or weed control at 16 ppm (Cochliobolus miyabeanus) of the same compound?
Answer: 63%

Question: Which results are given for `CCCC(Cn1cncn1)c1ccc(Cl)cc1Cl` (stereo not shown) [XIV (penconazole), 1-[2-(2,4-dichlorophenyl)pentyl]-1H-[1,2,4]triazole]?
Answer: pest or weed control at 1 ppm (Cochliobolus miyabeanus): 0%; pest or weed control at 4 ppm (Cochliobolus miyabeanus): 25%; pest or weed control at 16 ppm (Cochliobolus miyabeanus): 63%

Question: With `CC(C)C1CCC(Cc2ccc(Cl)cc2)C1(O)Cn1cncn1` (stereo not shown) [XVI (ipconazole), 2-(4-chlorobenzyl)-5-isopropyl-1-[1,2,4]triazol-1-ylmethylcyclo pentanol] as the compound, how does the “Efficacy in % of the untreated control” value (Pyricularia oryzae; 1 ppm in the spray liquor) read?
Answer: 11%

Question: How did the “Efficacy in % of the untreated control” value (Plasmopara viticola; 1 ppm in the spray liquor) turn out when `CC1(C)CC/C(=C\c2ccc(Cl)cc2)C1(O)Cn1cncn1` (stereo not shown) [XVII (triticonazole), 5-(4-chlorobenzylidene)-2,2-dimethyl-1-[1,2,4]triazol-1-ylmethyl cyclopentanol] was run?
Answer: 0%

Question: What about the “Efficacy in % of the untreated control” value (Plasmopara viticola; 4 ppm in the spray liquor) of the same compound?
Answer: 0%

Question: For `OC(Cc1ccccc1Cl)(Cn1nc[nH]c1=S)C1(Cl)CC1` (stereo not shown) [XVIII (prothioconazole), 2-[2-(1-chlorocyclopropyl)-3-(2-chlorophenyl)-2-hydroxypropyl]-2,4-dihydro[l,2,4]triazole-3-thione], which pest or weed control at 1 ppm (Cochliobolus miyabeanus) is on record?
Answer: 13%

Question: What about the pest or weed control at 4 ppm (Cochliobolus miyabeanus) of the same compound?
Answer: 50%

Question: What about the pest or weed control at 16 ppm (Cochliobolus miyabeanus) of the same compound?
Answer: 63%
